Bounds are passed on as bounds.

For this assay, the target named is T1, Androgen Receptor (AR) (Homo sapiens, UniProt P10275, T878A).
T1 construct: cell based immuno-fluorescence assay using the LNCaP prostate epithelial cell line; endogenous in cells; host or cells: LNCaP clone FGC (ATCC CRL-1740)
T1 sequence (P10275 1-920 T878A): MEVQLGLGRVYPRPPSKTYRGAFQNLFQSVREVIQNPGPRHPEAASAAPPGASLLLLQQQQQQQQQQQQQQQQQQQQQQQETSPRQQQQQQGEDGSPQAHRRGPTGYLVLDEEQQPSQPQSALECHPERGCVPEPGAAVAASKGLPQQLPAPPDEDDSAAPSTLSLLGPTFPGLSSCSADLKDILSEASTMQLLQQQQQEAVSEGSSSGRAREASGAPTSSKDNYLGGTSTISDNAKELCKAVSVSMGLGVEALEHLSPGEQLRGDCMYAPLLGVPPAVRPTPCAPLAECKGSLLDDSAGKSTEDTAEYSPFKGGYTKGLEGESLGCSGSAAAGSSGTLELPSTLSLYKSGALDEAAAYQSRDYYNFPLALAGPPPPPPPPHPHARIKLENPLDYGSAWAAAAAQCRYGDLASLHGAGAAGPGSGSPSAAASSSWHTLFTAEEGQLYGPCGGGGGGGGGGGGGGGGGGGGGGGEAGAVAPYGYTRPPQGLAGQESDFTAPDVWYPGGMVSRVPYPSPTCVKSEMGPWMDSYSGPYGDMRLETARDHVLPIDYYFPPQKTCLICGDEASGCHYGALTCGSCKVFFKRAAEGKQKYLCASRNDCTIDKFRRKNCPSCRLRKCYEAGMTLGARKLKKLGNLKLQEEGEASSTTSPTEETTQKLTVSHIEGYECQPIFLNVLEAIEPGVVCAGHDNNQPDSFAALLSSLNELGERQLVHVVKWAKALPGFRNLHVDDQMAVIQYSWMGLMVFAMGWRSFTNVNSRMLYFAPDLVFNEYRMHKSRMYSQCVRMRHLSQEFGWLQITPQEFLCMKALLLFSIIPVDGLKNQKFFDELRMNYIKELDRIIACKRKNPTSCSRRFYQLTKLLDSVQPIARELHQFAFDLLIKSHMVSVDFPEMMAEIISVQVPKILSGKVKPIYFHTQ
The experiment in a line: LNCaP Androgen Receptor Down-regulation Cell Assay (immunofluorescence end point). Format: cell-based. To be noted: LNCaP prostate carcinoma cells, compound incubation 20-22 hours, 50% reduction of the AR signal; read-out: Androgen Receptor Down-regulation Assay (a) IC50/μM. The method, then: The ability of compounds to reduce Androgen Receptor (AR) numbers was assessed in a cell based immuno-fluorescence assay using the LNCaP prostate epithelial cell line.
a) LNCaP Androgen Receptor Down-regulation Cell Assay
A 5 ml volume of Growth Medium was added to each flask (as above except that 5% (v/v) charcoal stripped FBS (HyClone Code no. SH30068.03) was included instead of 10% (v/v) FBS). Cells were syringed at least twice using a sterile 18G×1.5″ (1.2×40 mm) broad gauge needle and cell density was measured using a haemocytometer.
Test data reported herein was generated using two different compounds preparation and dosing methods. In method (1) a 10 mM compound stock solution in 100% (v/v) DMSO was serially diluted in 4-fold steps in 100% (v/v) DMSO using a Thermo Scientific Matrix SerialMate. The diluted compounds were then further diluted 1 in 30 in assay media using a Thermo Scientific Matrix PlateMate and a 10 μl aliquot of this dilution was dosed to cells manually using a multi-channel pipette. In method (2) starting with a 10 mM compound stock solution, the Labcyte Echo 550 was used to generate a compound concentration response set diluted in 30 μl of assay media. The Echo 550 is a liquid handler that uses acoustic technology to perform direct microplate-to-microplate transfers of DMSO compound solutions. The system can be programmed to transfer volumes as low as […] in multiple increments between microplates and in so doing generates a serial dilution of compound which is then back-filled to normalise the DMSO concentration across the dilution range. A 10 μl volume of diluted compound is then dosed to cells using a Thermo Scientific Matrix PlateMate.
Plates were incubated overnight at 37° C., 5% CO2. Wells were then dosed with compound prepared by one of the 2 methods above and further incubated for 20-22 hours at 37° C., 5% CO2. […] This fixative solution was removed and cells were washed with 250 μl of PBS/0.05% (v/v) Tween 20 (PBST) using an automated plate washer. This process was then repeated twice more.
Immunostaining was performed at room temperature. Cells were permeabilised by the addition of 35 μl of PBS containing 0.5% Tween 20 and incubated for 1 hour at room temperature. Permeabilisation solution was removed and cells were washed with 250 μl of PBST using an automated plate washer. This process was then repeated twice more. 35 μl of Blocking Solution (PBST containing 3% (w/v) Marvel dried skimmed milk (Nestle)) was added to each well and plates were incubated at room temperature for a minimum of 1 hour. […] Then this primary antibody solution was removed from the wells followed by 3×100 μl PBST washes using a plate washer. […] Henceforth, wherever possible, plates were protected from light exposure. The plates were incubated for 1 hour and then the secondary antibody solution was removed from the wells followed by 3×100 ul PBST washes using a plate washer. Then 50 μl of PBST was added to each well and plates were covered with a black plate seal and stored at 4° C. before being read. Plates were read within six hours of completing the immunostaining.
The Green Fluorescent AR-associated signal in each well was measured using an Acumen Explorer HTS Reader (TTP Labtech Ltd., Cambridge). […] The instrument is a laser-scanning fluorescence microplate cytometer which samples the well at regular intervals and uses threshold algorithms to identify all fluorescent intensities above the solution background without the need to generate and analyse an image. These fluorescent objects can be quantified and provide a measure of the AR levels in cells. Fluorescence dose response data obtained with each compound was exported into a suitable software package (such as Origin) to perform curve fitting analysis. Down-regulation of AR levels was expressed as an IC50 value.
`CN1CCN(CC(=O)Nc2cccc(C3CCN(c4ccc5nnc(C(F)(F)F)n5n4)CC3)c2)CC1` [Example 711]: the DC50 came out at 2.5 µM.
As to `CN1CCN(C(=O)c2cccc(C3CCN(c4ccc5nnc(C(F)(F)F)n5n4)CC3)c2)CC1` [Example 645], the DC50 stood at 2.3 µM.
`COCC(=O)Nc1ccc(C2CCN(c3ccc4nnc(C(F)(F)F)n4n3)CC2)cc1` [Example 664]: the DC50 stood at 3.6 µM.
In the case of `CC1CN(c2ccc3nnc(C(F)(F)F)n3n2)C(C)CN1Cc1ccc(F)c(C#N)c1` (stereo not shown) [Example 222], the DC50 came to 2.6 µM.
In the case of `FC(F)(F)c1nnc2ccc(N3CCC(Oc4ccncc4)CC3)nn12` [Example 545], the DC50 amounted to 3.6 µM.
Turning to `N#Cc1ccc(OC2CCN(c3ccc4nnc(C(F)(F)F)n4n3)CC2)cn1` [Example 448, 5-[[1-[3-(trifluoromethyl)-[1,2,4]triazolo[4,3-b]pyridazin-6-yl]piperidin-4-yl]oxy]pyridine-2-carbonitrile], the DC50 came out at 6.3 µM.
For `N#Cc1ccc(CN2CCN(c3ccc4nnc(C(F)F)n4n3)CC2)c(F)c1` [Example 262], the DC50 was 25 µM.
`OCc1cccc(CN2CCN(c3ccc4nnc(C(F)(F)F)n4n3)CC2)c1` [Example 149, [3-[[4-[3-(trifluoromethyl)-[1,2,4]triazolo[4,3-b]pyridazin-6-yl]piperazin-1-yl]methyl]phenyl]methanol]: the DC50 stood at 7.9 µM.
Next, `N#Cc1cccc(CN2CCN(c3ccc4nnc(C(F)(F)F)n4n3)CC2)c1` [Example 43, 3-[[4-[3-(trifluoromethyl)-[1,2,4]triazolo[4,3-b]pyridazin-6-yl]piperazin-1-yl]methyl]benzonitrile]: 1.5 µM; `O=C(c1ccc(F)cc1)C1CCN(c2ccc3nnc(C(F)(F)F)n3n2)CC1` [Example 534]: 2.3 µM; `C[C@@H]1CN(Cc2ccc(F)c(C#N)c2)CCN1c1ccc2nnc(C(F)(F)F)n2n1` [Example 604]: 1.7 µM.
For the compound `O=C1NCN(c2ccccc2)C12CCN(c1ccc3nnc(C(F)(F)F)n3n1)CC2` [Example 20, 1-phenyl-8-[3-(trifluoromethyl)-[1,2,4]triazolo[4,3-b]pyridazin-6-yl]-1,3,8-triazaspiro[4.5]decan-4-one], the DC50 turned out to be 1.8 µM.
Regarding `CN(C)CCOc1ccc(OC2CCN(c3ccc4nnc(C(F)(F)F)n4n3)CC2)cc1` [Example 435], the DC50 is 0.98 µM.
For the compound `COC(=O)c1cccc(C2CCN(c3ccc4nnc(C(F)(F)F)n4n3)C2)c1` (stereo not shown) [Example 334], the DC50 came to 1.1 µM.
Regarding `Fc1ccc(CN2CCN(c3ccc4nnc(C(F)F)n4n3)CC2)cc1F` [Example 250], the DC50 was determined as 4.9 µM.
Take `C[C@H]1CN(Cc2cc(F)cc(F)c2)CCN1c1ccc2nnc(C(F)(F)F)n2n1` [Example 596]: the DC50 came out at 4.2 µM.
`Fc1cc(Cl)cc(CN2CCN(c3ccc4nnc(C(F)F)n4n3)CC2)c1` [Example 813]: the DC50 came out at 6.8 µM.
The result for `CN(Cc1ccc(F)c(C#N)c1)C1CCN(c2ccc3nnc(C(F)(F)F)n3n2)CC1` [Example 411] reads 2.2 µM.
As for `CN(CCO)C(=O)c1cccc(C2CCN(c3ccc4nnc(C(F)(F)F)n4n3)CC2)c1` [Example 643], the DC50 was 6 µM.
On to `C[C@H](c1ccc(C#N)cc1)N1CCN(c2ccc3nnc(C(F)F)n3n2)CC1` [Example 858, 4-[(1R)-1-[4-[3-(difluoromethyl)-[1,2,4]triazolo[3,4-f]pyridazin-6-yl]piperazin-1-yl]ethyl]benzonitrile], for which the DC50 is > 33 µM.
The result for `FC(F)(F)c1nnc2ccc(N3CCC(COC4CCOCC4)CC3)nn12` [Example 294, 6-[4-[(tetrahydro-2H-pyran-4-yloxy)methyl]piperidin-1-yl]-3-(trifluoromethyl)[1,2,4]triazolo[4,3-b]pyridazine] reads 9.5 µM; that for `FC(F)(F)c1nnc2ccc(N3CCN(Cc4ccc[nH]4)CC3)nn12` [Example 83, 6-[4-(1H-pyrrol-2-ylmethyl)piperazin-1-yl]-3-(trifluoromethyl)-[1,2,4]triazolo[4,3-b]pyridazine], 2.5 µM; that for `COc1ccccc1OC1CCN(c2ccc3nnc(C(F)(F)F)n3n2)CC1` [Example 531], 1.8 µM.
For `COc1ccc(S(=O)(=O)N2CCN(c3ccc4nnc(C(F)(F)F)n4n3)CC2)c(OC)c1` [Example 404], the DC50 worked out at 2.7 µM.
The result for `FC(F)(F)c1nnc2ccc(N3CCN(c4ccccc4Cl)CC3)nn12` [Example 37, 6-[4-(2-chlorophenyl)piperazin-1-yl]-3-(trifluoromethyl)-[1,2,4]triazolo[4,3-b]pyridazine] reads 1.4 µM; that for `O=C(c1ccc(C2CCN(c3ccc4nnc(C(F)(F)F)n4n3)CC2)cc1)N1CC[C@@H](O)C1` [Example 738], 3.3 µM; that for `CN(Cc1ccc(F)c(F)c1)C1CCN(c2ccc3nnc(C(F)(F)F)n3n2)CC1` [Example 408], 1.7 µM.
Turning to `FC(F)(F)c1nnc2ccc(N3CC=C(c4cccnc4)CC3)nn12` [Example 605, 1′-[3-(trifluoromethyl)[1,2,4]triazolo[4,3-b]pyridazin-6-yl]-1′,2′,3′,6′-tetrahydro-3,4′-bipyridine], the DC50 amounted to 5 µM.
Next, `FC(F)(F)c1nnc2ccc(N3CCN(Cc4cccc(Br)n4)CC3)nn12` [Example 367, 6-[4-[(6-bromopyridin-2-yl)methyl]piperazin-1-yl]-3-(trifluoromethyl)[1,2,4]triazolo[4,3-b]pyridazine]: 4.1 µM.
In the case of `FC(F)(Cl)c1nnc2ccc(N3CCN(CCc4ccccc4)CC3)nn12` [Example 349, 3-[chloro(difluoro)methyl]-6-[4-(2-phenylethyl)piperazin-1-yl][1,2,4]triazolo[4,3-b]pyridazine], the DC50 is 1.7 µM.
With `Fc1cccc(OC2CCN(c3ccc4nnc(C(F)(F)F)n4n3)CC2)c1` [Example 532], the DC50 was determined as 0.98 µM.
Next, `CC(F)(F)c1nnc2ccc(N3CCN(Cc4cccc(F)c4)CC3)nn12` [Example 243]: 3.7 µM; `Fc1ccc(CN2CCN(c3ccc4nnc(C(F)F)n4n3)CC2)c(F)c1` [Example 249]: 6.3 µM; `Fc1ccc(OC2CN(c3ccc4nnc(C(F)(F)F)n4n3)C2)cc1` [Example 484]: > 14 µM.

For the origin of these results see US8003649B2 (AstraZeneca AB, priority 2007, dated 2011).
